{"source": "patent US4456594A", "about": "“N-Carboxyalkylproline-containing tripeptides” (SmithKline Beckman Corporation, priority 1982, dated 1984)", "key": {"[1]": {"test_system": "anesthetized dogs", "assay": "renal vasodilator activity test in anesthetized dogs (infusion)", "assay_type": "in vivo, dog", "conditions": "for renal vasodilator activity: primary test period of the renal anesthetized dog screening protocol", "description": "Representative specific results are included in the examples."}, "[2]": {"test_system": "spontaneously hypertensive rats", "assay": "spontaneously hypertensive rat (SHR) diuretic naturetic assay", "assay_type": "in vivo", "conditions": "25 and 50 mg/kg i.p.", "experimental": "In this test, male, Okamato-Aoki strain, spontaneously hypertensive rats, aged 16-19 weeks, are fasted, then, the following afternoon, the first dose of test compound is administered, along with a 25 ml/kg p.o. load of normal saline. The animals are, then, placed in metabolism cages and urine collected for three hours for analysis. Indirect systolic blood pressure and heart rate are measured by a tail-cuff. An identical second dose of test compound is administered. After two hours, blood pressure and heart rate are again tested. The test compound is usually administered p.o. or i.p. in saline with 0.02% ascorbic acid."}, "[3]": {"test_system": "angiotensin coverting enzyme", "assay": "angiotensin converting enzyme inhibiting activity", "assay_type": "in vivo", "conditions": "at 10 times its renally effective dose"}, "[4]": {"test_system": "dopamine-sensitive adenylate cyclase system", "assay": "dopamine-sensitive adenylate cyclase system in vitro", "assay_type": "biochemical"}, "[5]": {"test_system": "toad bladder", "assay": "toad bladder anti-ADH assay"}, "[6]": {"assay": "bradycardic effect (heart rate), test not stated", "conditions": "in vivo"}, "[7]": {"conditions": "two anesthetized dogs, 3, 30 and 300 μg/kg/min"}}, "note": "Counter-ions that a name gives are not always drawn.", "data": [{"smiles": "O=C(O)CN1CCC[C@H]1C(=O)N[C@@H](Cc1ccccc1)C(=O)N1CCC[C@H]1C(=O)O", "note": "[Example 2 sulfate, N-carboxymethyl-L-prolyl-L-phenylalanyl-L-proline]", "values": [{"measurement": "renal blood flow (qualitative)", "setting": "[1]; 30 and 300 μg/kg/min", "result": "increased renal blood flow"}]}, {"smiles": "O=C(O)CN1CCC[C@H]1C(=O)NCCC(=O)N1CCC[C@H]1C(=O)O.O=S(=O)(O)O", "note": "[Example 3, N-carboxymethyl-L-prolyl-β-alanyl-L-proline sulfate]", "values": [{"measurement": "renal blood flow (qualitative)", "setting": "[1]; [7]", "result": "increased renal blood flow"}, {"measurement": "renal vascular resistance (qualitative)", "setting": "[1]; [7]", "result": "decreased renal vascular resistance"}, {"measurement": "Na+, K+ or urine excretion (qualitative)", "setting": "[2]", "result": "significant increase"}, {"measurement": "angiotensin converting enzyme inhibiting activity", "setting": "[3]", "result": "did not have angiotensin coverting enzyme inhibiting activity"}, {"measurement": "stimulation or antagonism of dopamine-sensitive adenylate cyclase", "setting": "[4]", "result": "did not stimulate or antagonize"}, {"measurement": "anti-ADH activity", "setting": "[5]", "result": "nor was it active"}, {"measurement": "bradycardic effect", "setting": "[6]", "result": "weak bradycardic effect"}]}, {"smiles": "CC(C(=O)O)N1CCC[C@H]1C(=O)NCCC(=O)N1CCC[C@H]1C(=O)O", "note": "(stereo partly drawn) [N-(1-carboxyethyl)-L-prolyl-β-alanyl-L-proline]", "values": [{"measurement": "renal vasodilator activity", "setting": "[1]", "result": "inactive"}]}, {"smiles": "NCCCC[C@H](NC(=O)[C@@H]1CCCN1CC(=O)O)C(=O)N1CCC[C@H]1C(=O)O", "note": "[N-carboxymethyl-L-prolyl-L-lysyl-L-proline]", "values": [{"measurement": "renal vasodilator activity", "setting": "[1]", "result": "inactive"}]}, {"smiles": "O=C(O)CN1CCC[C@H]1C(=O)NCC(=O)N1CCC[C@H]1C(=O)O", "note": "[N-carboxymethyl-prolyl-glycyl-L-proline]", "values": [{"measurement": "renal vasodilator activity", "setting": "[1]", "result": "inactive"}]}, {"smiles": "NCCc1ccc(O)c(O)c1", "note": "[dopamine]", "values": [{"measurement": "RVR-ED15", "setting": "[1]; secondary test in three dogs, i.v.", "result": 3.5, "unit": "µg/kg"}]}]}
